Read-outs that look alike come from different tables or passages of the source.
Experiments:
Type in all cases: in vivo, human
[1] = Population PK: parent MT steady state plasma Cmax,ss in Phase III patients; details: for % high Cmax (Cmax,ss > 0.373 ng/ml): LMTM 8 mg/day; for Cmax: human, plasma, oral, parent MT
Description: (§1) Pharmacokinetic analyses were undertaken using plasma concentration data from patients who participated in either of two completed Phase III trials which have been described previously [[35, 36]]. In brief, the first (TRx-237-015) was a 15-month study which recruited 890 patients from 115 sites across 16 countries in EU, North America, Asia, and Russia. Patients had to be <90 years of age and have a diagnosis of mild to moderate probable AD according to National Institute of Aging (NIA) and Alzheimer’s Association (AA) criteria and a Mini-Mental State Examination (MMSE) score of 14–26 inclusive and with a Clinical Dementia Rating (CDR) total score of 1 or 2. The second study (TRx-237-005) was an 18-month trial which recruited 800 patients from 108 sites in Canada, United States, Australia, and Europe. Patients had to meet the same age and diagnosis criteria, except that they were required to have a MMSE score of 20–26 inclusive and a CDR total score of 0.5 or 1.0. Concomitant use of AChEIs or memantine (or both) was permitted in both studies provided this was at a stable dose for at least 18 weeks before randomization. Concomitant use of serotonergic antidepressant, antipsychotic (except clozapine or olanzapine), and sedative medications was also permitted at stable doses where clinically feasible. Patients were randomly assigned to receive LMTM at doses of 250, 150, or 8 mg/day in Study 015 and doses of 200 or 8 mg/day in Study TRx-237-005. Randomization in both studies was stratified according to geographical region, use of AD-labelled co-medications, and severity of AD. The co-primary outcomes in both studies were the Alzheimer’s Disease Assessment Scale–cognitive subscale, 11-item version (ADAS-cog11) and the Alzheimer’s Disease Co-operative Study–Activities of Daily Living, 23-item version (ADCS-ADL23) scale measured at baseline and every 3 months. MRI scans were undertaken at screening or baseline and at 3-month intervals. MRI acquisition protocol and parameters were standardized across sites and all data were centrally collected, quality-controlled, and analyzed blind by an imaging core lab (Bioclinica). Volumetric data were used to measure changes in whole brain volume (WBV, which provides a measure of the volume of grey and white matter), lateral ventricular volume (LVV), and other regional volumes including hippocampus, although only the global measures are reported in the present study. Baseline volumes were assessed using FreeSurfer 5.3, and volume change was assessed using Boundary Shift Integral and Tensor Based Morphometry for regional structures. Full details and study protocols for these two trials are available [[35, 36]].
Blood samples for assessment of parent MT, N-desmethyl MT, and total MT (sum of parent MT and a labile LMT conjugate) were collected from each patient on the first treatment visit (two samples: pre-dose and approximately 3.5 h after the dose) and at each subsequent on-treatment visit. The protocol specified that PK plasma sampling was to be conducted only at sites with adequate facilities (i.e., a refrigerated centrifuge and adequate capability to reliably freeze samples). Blinded analyses were conducted at the University of Aberdeen GLP Test Facility. MT levels in plasma were measured using liquid chromatography-tandem mass spectrometry. […] The method was validated for use in the Phase III studies over the range 0.2 to 10 ng/ml. Extrapolated MT concentrations were available below the lower limit of quantitation (but above the lower limit of detection) in approximately 35% of the Day 1 patients randomized to the 8 mg/day dose. The method was validated for long-term sample storage of 162 days at –20°C. […] Plasma samples from a total of 1,296 patients from the two Phase III studies in AD were available for analysis and, of these, 1,162 also had baseline and post-baseline efficacy outcome data available for analysis. […]

[2] = tested on: patients with mild to moderate Alzheimer's disease; experiment: ADCS-ADL23 change over 65 weeks by plasma exposure; details: for ADCS-ADL Difference ± SEM: split by 8 mg/day Cmax,ss median
Description: as §1
(§2) Having shown a concentration-dependent response for cognitive decline, a mixed-effects model for repeated measures analysis was used to characterize further the relationship between each efficacy endpoint and parent MT plasma exposure (steady state Cmax,ss) according to the following formula: pharmacological activity∼plasma-level×visit+co-medication-status×visit+co-medication-status×plasma-level+geographical-region+CDR-at-baseline+baseline-score×visit
(§3) The following terms were categorical variables in the models: plasma exposure (Cmax,ss) (7 levels), visit (5 levels), co-medication status with AD drugs (2 levels), geographical region (2 levels), and CDR at baseline (3 levels). For the longitudinal analyses, plasma level was described by two levels (above or below threshold).

[3] = tested on: patients with mild to moderate Alzheimer's disease; experiment: MRI whole brain volume (WBV) change over 65 weeks by plasma exposure; details: for WBV Difference ± SEM: split by 8 mg/day Cmax,ss median
Description: as §1, §2, §3

[4] = LMTM 8 mg/day as add-on therapy, Cmax,ss above vs below 0.373 ng/ml
[5] = LMTM 8 mg/day as monotherapy, Cmax,ss above vs below 0.373 ng/ml
[6] = LMTM 8 mg/day, low Cmax add-on versus high Cmax monotherapy
[7] = all patients, high vs low exposure split by Cmax,ss 0.373 ng/ml, 65 weeks
[8] = patients receiving LMTM 8 mg/day, split by Cmax,ss 0.373 ng/ml, 65 weeks

CN(C)c1ccc2c(c1)Sc1cc(N(C)C)ccc1N2 [LMTM, leuco-methylthioninium bis(hydromethanesulphonate)]
patients with subthreshold plasma levels (below 0.2 ng/ml) after first dose on Day 1 ([1]; 8 mg/day): 35% | steady state plasma levels ([1]; 8 mg/day dose): 0.3 to 0.8 ng/mL | probability of achieving the Cmax,ss threshold of 0.373 ng/ml ([1]; 8 mg/day, creatinine clearance 20 ml/min/1.73 m^2): ~100% | probability of achieving the Cmax,ss threshold of 0.373 ng/ml ([1]; 8 mg/day, creatinine clearance 106 ml/min/1.73 m^2): essentially zero | % high Cmax (Cmax,ss > 0.373 ng/ml) ([1]; patients not using anti-inflammatory and antirheumatic products, non-steroids): 67.3% | % high Cmax (Cmax,ss > 0.373 ng/ml) ([1]; patients not using antihypertensive/antiarrhythmic drugs): 60.6% | % high Cmax (Cmax,ss > 0.373 ng/ml) ([1]; patients not using antithrombotic agents): 62.6% | % high Cmax (Cmax,ss > 0.373 ng/ml) ([1]; patients not using blood glucose lowering drugs, excluding insulins): 65.6% | % high Cmax (Cmax,ss > 0.373 ng/ml) ([1]; patients not using drugs for peptic ulcer and gastro-esophageal reflux disease): 65.3% | % high Cmax (Cmax,ss > 0.373 ng/ml) ([1]; patients not using lipid modifying agents): 66.0% | % high Cmax (Cmax,ss > 0.373 ng/ml) ([1]; patients not using thyroid preparations): 64.3% | % high Cmax (Cmax,ss > 0.373 ng/ml) ([1]; patients using anti-inflammatory and antirheumatic products, non-steroids): 59.5% | % high Cmax (Cmax,ss > 0.373 ng/ml) ([1]; patients using antithrombotic agents): 70.3% | % high Cmax (Cmax,ss > 0.373 ng/ml) ([1]; patients using blood glucose lowering drugs, excluding insulins): 66.2% | % high Cmax (Cmax,ss > 0.373 ng/ml) ([1]; patients using drugs for peptic ulcer and gastro-esophageal reflux disease): 66.9% | % high Cmax (Cmax,ss > 0.373 ng/ml) ([1]; patients using lipid modifying agents): 65.2% | % high Cmax (Cmax,ss > 0.373 ng/ml) ([1]; patients using thyroid preparations): 74.1% | estimated mean plasma concentration ([1]; expected at 16 mg/day): 0.88 ± 0.18 ng/mL | plasma concentrations ([1]; high doses (150–250 mg/day)): 4 to 21 ng/mL | Cmax ([1]; 8 mg/day, 8 mg/day – Group 1, read-out: Cmax,ss Mean (SD)): 0.334 ng/mL | Cmax ([1]; 8 mg/day, 8 mg/day – Group 1, read-out: Cmax,ss Range): 0.257 to 0.373 ng/mL | Cmax ([1]; 8 mg/day, 8 mg/day – Group 2, read-out: Cmax,ss Range): 0.373 to 0.414 ng/mL | Cmax ([1]; 8 mg/day, 8 mg/day – Group 3, read-out: Cmax,ss Mean (SD)): 0.449 ng/mL | Cmax ([1]; 8 mg/day, 8 mg/day – Group 3, read-out: Cmax,ss Range): 0.415 to 0.478 ng/mL | Cmax ([1]; 8 mg/day, 8 mg/day – Group 4, read-out: Cmax,ss Mean (SD)): 0.565 ng/mL | Cmax ([1]; 8 mg/day, 8 mg/day – Group 4, read-out: Cmax,ss Range): 0.479 to 0.812 ng/mL | Cmax ([1]; 150 mg/day, 150 mg/day, read-out: Cmax,ss Mean (SD)): 7.82 ng/mL | Cmax ([1]; 150 mg/day, 150 mg/day, read-out: Cmax,ss Range): 5.1 to 18.6 ng/mL | Cmax ([1]; 200 mg/day, 200 mg/day, read-out: Cmax,ss Mean (SD)): 10.1 ng/mL | Cmax ([1]; 200 mg/day, 200 mg/day, read-out: Cmax,ss Range): 6.56 to 21.3 ng/mL | Cmax ([1]; 250 mg/day, 250 mg/day, read-out: Cmax,ss Mean (SD)): 12.6 ng/mL | Cmax ([1]; 250 mg/day, 250 mg/day, read-out: Cmax,ss Range): 8.83 to 21.2 ng/mL | Cmax ([1]; 8 mg/day – Group 2, read-out: Cmax,ss Mean (SD)): 0.393 ng/mL | ADCS-ADL23 Difference±SEM in change from baseline [2, 4]: 1.32±1.04 | ADCS-ADL23 Difference±SEM in change from baseline [2, 5]: 0.46±1.47 | ADCS-ADL Difference ± SEM ([2]; LMTM 8 mg/day as monotherapy): 0.52 ± 1.38 | ADCS-ADL23 Difference±SEM in change from baseline [2, 6]: 6.14±1.64 | ADCS-ADL23 Difference±SEM in change from baseline [2, 7]: 0.54±0.94 | ADCS-ADL Difference ± SEM ([2]; all patients): 0.21 ± 0.81 | ADCS-ADL23 Difference±SEM in change from baseline [2, 8]: 1.22±1.01 | WBV Difference±SEM in change from baseline [3, 4]: 4.69±1.21 cm^3 | WBV Difference ± SEM ([3]; LMTM 8 mg/day as add-on therapy): 4.02 ± 1.17 cm3 | WBV Difference±SEM in change from baseline [3, 5]: 2.76±1.66 cm^3 | WBV Difference ± SEM ([3]; LMTM 8 mg/day as monotherapy): 1.07 ± 1.58 cm3 | WBV Difference±SEM in change from baseline [3, 6]: 11.54±1.87 cm^3 | WBV Difference±SEM in change from baseline [3, 7]: 3.55±1.10 cm^3 | WBV Difference ± SEM ([3]; all patients): 2.47 ± 0.92 cm3 | WBV Difference±SEM in change from baseline [3, 8]: 4.39±1.18 cm^3

Source: article PMC6918900, “Concentration-Dependent Activity of Hydromethylthionine on Cognitive Decline and Brain Atrophy in Mild to Moderate Alzheimer’s Disease” (Journal of Alzheimer's Disease, 2019)
